US20100063035A1, “CARBONIC ANHYDRASE INHIBITORS DERIVATIVES” (Nicox S.A., priority 2006, published 2010)

Columns and labels:
[1] = target: hCA IV (Homo sapiens, UniProt P22748); assay: Carbonic anhydrase inhibition, stopped-flow CO2 hydration assay, isoenzyme CA IV
Protocol: (§1) An SX.18MV-R Applied Photophysics stopped flow instrument was used for assaying the CA CO2 hydration activity. […] The buffer solution was constituted by 10 mM HEPES, 0.1 M Na2SO4, and TRIZMA hydrochloride 0.01 M, adjusting the pH solution at 7.5 with NaOH (0.1 M). […] Satured CO2 solution in bidistilled water at 20° C. was used as substrate.
(§2) Stock solutions of inhibitor (1 mM) were prepared with buffer solution with 10-20% (v/v) DMSO, and dilutions up to 0.1 nM. To allow for the formation of the E-1 complex, inhibitor and enzyme solutions were preincubated during 15 min at room temperature prior to assay. Enzyme concentration was 0.1 μM for CA I and II, 10 μM for CA IV. The human CA I and CA II are commercially available, whereas hCA IV (tumor) is cloned isoform.
Each experiment was done in triplicate.

[2] = target: hCA II (Homo sapiens, UniProt P00918); assay: Carbonic anhydrase inhibition, stopped-flow CO2 hydration assay, isoenzyme CA II
Protocol: as §1, §2
Each experiment was done in triplicate.

[3] = target: hCA I (Homo sapiens, UniProt P00915); assay: Carbonic anhydrase inhibition, stopped-flow CO2 hydration assay, isoenzyme CA I
hCA I, sequence (P00915 whole entry): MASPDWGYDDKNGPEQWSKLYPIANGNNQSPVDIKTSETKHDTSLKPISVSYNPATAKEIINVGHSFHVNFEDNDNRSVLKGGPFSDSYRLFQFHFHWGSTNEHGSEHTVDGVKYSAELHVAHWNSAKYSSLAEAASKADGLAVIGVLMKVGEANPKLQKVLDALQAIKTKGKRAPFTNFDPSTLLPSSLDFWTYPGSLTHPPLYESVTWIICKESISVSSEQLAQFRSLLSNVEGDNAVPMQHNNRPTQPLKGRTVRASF
Protocol: as §1, §2
Each experiment was done in triplicate.

hCA IV, sequence (P22748 19-284 limits assumed): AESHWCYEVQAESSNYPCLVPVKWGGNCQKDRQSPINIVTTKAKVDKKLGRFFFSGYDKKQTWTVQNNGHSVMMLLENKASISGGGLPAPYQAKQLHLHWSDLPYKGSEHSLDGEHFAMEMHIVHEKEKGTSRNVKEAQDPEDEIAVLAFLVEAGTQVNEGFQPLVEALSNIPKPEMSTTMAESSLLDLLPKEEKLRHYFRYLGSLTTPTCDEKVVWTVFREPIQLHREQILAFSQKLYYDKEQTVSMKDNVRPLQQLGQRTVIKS

SMILES	Ki [1] [nM]	Ki [2] [nM]	Ki [3] [µM]
CCN[C@H]1CC(C)S(=O)(=O)c2sc(S(=O)(=O)NC(=O)OCCCCO[N+](=O)[O-])cc21 (stereo partly drawn) [Ex. 7, (4S-trans)-4-(ethylamino)-5,6-dihydro-6-methyl-4H-thieno[2,3-b]thiopyran-2-sulfonylamido-N-(4-(nitrooxy)butyloxycarbonyl)-7,7-dioxide]	411	886	42.3
CCN[C@H]1CC(C)S(=O)(=O)c2sc(S(=O)(=O)NC(=O)CCCCCO[N+](=O)[O-])cc21 (stereo partly drawn) [Ex. 1, (4S-trans)-4-(ethylamino)-5,6-dihydro-6-methyl-4H-thieno[2,3-b]thiopyran-2-sulfonylamido-N((6-nitrooxy)hexanoyl)-7,7-dioxide]	3400	251	15
